Experimental data: patent US10328065B2, “Pharmaceutical combination comprising the PI3K inhibitor alpelisib and the B-RAF inhibitor dabrafenib; the use of such combination in the treatment or prevention of cancer” (Novartis AG, priority 2015, dated 2019)

Assays:
Format in all cases: cell-based
RKO = experiment: Cell proliferation (cell count by microscopy) and HSA synergy, RKO; conditions: Homo sapiens, cell line printed RXO (BRAF, PIK3CA mutant), 72 h, 50% of cell counts relative to DMSO, tested A 13 nM-10 μM, B 1.4 nM-1 μM
Procedure: (§1) COMPOUNDS A and B were dissolved in 100% DMSO (Sigma, Catalog number D2650) at concentrations of 20 mM and stored at −20° C. until use. Compounds were arrayed in drug master plates (Greiner, Catalog number 788876) and serially diluted 3-fold (7 steps) at 2000× concentration.
(§2) Colorectal cancer cell lines used for this study were obtained, cultured and processed from commercial vendors ATCC, HSRRB, and CellBank Australia (Table 1). All cell line media were supplemented with 10% FBS (HyClone, Catalog number SH30071.03). Media for LIM2405 and LIM2551 was additionally supplemented with 0.6 μg/mL Insulin (SIGMA, Catalog number 19278), 1 μg/mL Hydrocortisone (SIGMA, Catalog number H0135), and 10 μM 1-Thioglycerol (SIGMA, Catalog number M6145).
(§3) Cell lines were cultured in 37° C. and 5% CO2 incubator and expanded in T-75 flasks. In all cases cells were thawed from frozen stocks, expanded through ≥1 passage using 1:3 dilutions, counted and assessed for viability using a ViCell counter (Beckman-Coulter) prior to plating. To split and expand cell lines, cells were dislodged from flasks using 0.25% Trypsin-EDTA (GIBCO, Catalog number 25200). All cell lines were determined to be free of mycoplasma contamination as determined by a PCR detection methodology performed at Idexx Radil (Columbia, Mo., USA) and correctly identified by detection of a panel of SNPs. […]

HT-29 = experiment: Cell proliferation (cell count by microscopy) and HSA synergy, HT-29; conditions: Homo sapiens; HT-29 (BRAF, PIK3CA mutant); 72 h; 50% of cell counts relative to DMSO; tested A 13 nM-10 μM, B 1.4 nM-1 μM
Procedure: as §1, §2, §3

LIM2551 = experiment: Cell proliferation (cell count by microscopy) and HSA synergy, LIM2551; conditions: LIM2551 (BRAF, PIK3CA mutant); 72 h; 50% of cell counts relative to DMSO; tested A 13 nM-10 μM, B 1.4 nM-1 μM
Procedure: as §1, §2, §3

LS411N = experiment: Cell proliferation (cell count by microscopy) and HSA synergy, LS411N; conditions: Homo sapiens, LS-411N; LS411N (BRAF mutant); 72 h; 50% of cell counts relative to DMSO; tested A 13 nM-10 μM, B 1.4 nM-1 μM
Procedure: as §1, §2, §3

COLO-205 = experiment: Cell proliferation (cell count by microscopy) and HSA synergy, COLO-205; conditions: Homo sapiens; COLO-205 (BRAF mutant); 72 h; 50% of cell counts relative to DMSO; tested A 13 nM-10 μM, B 1.4 nM-1 μM
Procedure: as §1, §2, §3

LIM2405 = experiment: Cell proliferation (cell count by microscopy) and HSA synergy, LIM2405; conditions: LIM2405 (BRAF mutant); 72 h; 50% of cell counts relative to DMSO; tested A 13 nM-10 μM, B 1.4 nM-1 μM
Procedure: as §1, §2, §3

OUMS-23 = experiment: Cell proliferation (cell count by microscopy) and HSA synergy, OUMS-23; conditions: OUMS-23 (BRAF mutant); 72 h; 50% of cell counts relative to DMSO; tested A 13 nM-10 μM, B 1.4 nM-1 μM
Procedure: as §1, §2, §3

IC50 (HT-29) | IC50 (COLO-205) | SMILES | IC50 (RKO) | IC50 (LIM2551) | IC50 (LS411N) | IC50 (LIM2405) | IC50 (OUMS-23)
12 nM | 10 nM | CC(C)(C)c1nc(-c2cccc(NS(=O)(=O)c3c(F)cccc3F)c2F)c(-c2ccnc(N)n2)s1 [COMPOUND B, N-{3-[5-(2-Amino-4-pyrimidinyl)-2-(1,1-dimethylethyl)-1,3-thiazol-4-yl]-2-fluorophenyl}-2,6-difluorobenzenesulfonamide] | 191 nM | 23 nM | > 1 µM | 7 nM | > 1 µM
1900 nM | > 10000 nM | Cc1nc(NC(=O)N2CCC[C@H]2C(N)=O)sc1-c1ccnc(C(C)(C)C(F)(F)F)c1 [COMPOUND A, (S)-Pyrrolidine-1,2-dicarboxylic acid 2-amide 1-({4-methyl-5-[2-(2,2,2-trifluoro-1,1-dimethyl-ethyl)-pyridin-4-yl]-thiazol-2-yl}-amide)] | 2600 nM | 1400 nM | > 10 µM | > 10000 nM | > 10 µM
